Entries after “also recorded” stand apart in the source; their conditions may differ. Where no end group is shown, it is not given here. The star is where a group is joined. FITC = O=C1OC2(c3ccc(O)cc3Oc3cc(O)ccc32)c2ccc(NC(=S)*)cc21
What was measured:
HT29 cells = test: Uptake of FITC-labelled peptide by confocal microscopy; assay type: cell-based, human; conditions: serum-free culture, after 24 hours, compared to FITC alone
Description: The ability of 10 Ala to cross the plasma membrane of HT29 cells was assessed by means of confocal microscopy of cells exposed to 10Ala conjugated to fluorosceine isothiocyanate (FITC) under serum-free culture conditions. The peptide used in this study comprised the sequence KRAKAKAAAAR (SEQ ID No. 25) (identified as FITC-K10(4)Ala) with an extra lysine residue at the amino terminus (to which the FITC label is attached). […] A microphotograph showing localization of the FITC-labelled peptide to the cytoplasm of cells compared to cells treated with FITC alone is shown in FIG. 9.

colon cancer cells = conditions: PCT/AU2010/000203; cited from earlier work
[1] = tested on: MDA468 breast cancer cells; test: Modified MTT assay, MDA468, 5% serum, 48 hours; assay type: cell-based, human; conditions: for Growth inhibition of MDA468 breast cancer cells: concentrations of 0.5 μM or greater
Description: (§1) Cells in logarithmic growth were transferred to 96-well plates in 100 μl of serum-containing medium at a density of 4000 cells per well. After 24 hours the previously added serum-containing medium was removed and 200 μl serum free medium (SFM) with or without peptide was added to each of triplicate wells. Drug exposure experiments were carried out on cell lines using varying concentrations of peptides (50 nM-100 μM) and cells were exposed to peptides for 72 hours in serum-free culture medium. Growth-inhibitory effects were evaluated by MTT (3-[4,5-dimethylthiazol-2-yl]2,5-diphenyl-tetrazolium bromide) cell growth assay and absorbance was read at 540 nm. Growth of control cells was exponential during the whole incubation period. Mean surviving fractions±SEM values (minimum of 3 separate experiments) were determined for each peptide/cisplatin concentration.
(§2) The growth inhibitory activity of various concentrations of the 10 RVK peptide (RVKVKVVVVR) (SEQ ID No. 24) with an 8 mer polyarginine sequence coupled to its C-terminal end (i.e., RVKVKVVVVRRRRRRRRR (SEQ ID No. 26), referred to herein as 10 RVK Arg) on MDA468 breast cancer cells was assessed by a modified form of the MTT assay described in Example 1.2 in which 3000 cells per well were cultured for 48 hours in culture medium containing 5% serum. For the negative control, an 8 mer polyargine peptide (8 Arg) was used. The results shown in FIG. 10 are the average of 3 replicate wells for each dosage.
(§3) The growth inhibitory activity of various concentrations of the 10 RVK Arg peptide on MDA468 breast cancer and DU145 prostate cancer cells was assessed by MTT assay involving incubating the cells in 5% serum containing medium for 48 hours as described in Example 2. As a comparison, inhibition of the growth of the cells by the 10 RVK peptide with a 7 mer polyarginine sequence coupled to its C-terminal end (i.e., RVKVKVVVVRRRRRRRR (SEQ ID No. 27), referred to herein as 10 RVK 7 Arg) and the 10 RVK peptide with an 8 mer polyargine sequence coupled to its N-terminal end (i.e., RRRRRRRRRVKVKVVVVR (SEQ ID No. 28), referred to herein as Arg 10 RVK) were also assessed. The results for inhibition of the breast cancer cells are shown in FIG. 11 while the results for treatment of the prostate cancer cells are shown in FIG. 12.

[2] = tested on: DU145 prostate cancer cells; test: Modified MTT assay, DU145, 5% serum, 48 hours; assay type: cell-based, human; conditions: for Growth inhibition of DU145 prostate cancer cells: 5% serum, 48 hours, concentrations of 0.5 μM or greater
Description: as §1, §2, §3

HT29 colon cancer cells [3] = test: In vitro growth inhibition MTT assay, HT29; assay type: cell-based, human; conditions: for Inhibition of HT29 cell growth/proliferation (MTT), in words: serum-free medium, 72 hours, peptide 50 nM-100 μM, compared with RSKAKNPLYR or 10Ala
Description: (§4) The human colon cancer cell line HT29, ovarian cancer cell line A2780, breast cancer cell lines MCF-7 and MDA468, and a prostate cancer cell line (DU145) were used for in vitro studies. The cell lines were cultured at 37° C., under air containing 5% CO2 and passaged regularly for optimal growth. Cells were maintained in DMEM medium containing 10% fetal bovine serum. All culture medium preparations were further supplemented with penicillin/streptomycin (100 μg/ml), and
(§5) 1.2 In Vitro Growth Inhibition MTT Assay
Cells in logarithmic growth were transferred to 96-well plates in 100 μl of serum-containing medium at a density of 4000 cells per well. […] […] Growth-inhibitory effects were evaluated by MTT (3-[4,5-dimethylthiazol-2-yl]2,5-diphenyl-tetrazolium bromide) cell growth assay and absorbance was read at 540 nm. Growth of control cells was exponential during the whole incubation period. Mean surviving fractions±SEM values (minimum of 3 separate experiments) were determined for each peptide/cisplatin concentration.

HT29 colon cancer cells [4] = conditions: in vitro in the presence of serum, Agrez et al., 2011; cited from earlier work
[5] = tested on: prostate (DU145) cancer cell line; test: In vitro growth inhibition MTT assay, DU145, serum-free; assay type: cell-based, human; conditions: 72 hours
Description: as §4, §5, §1

[6] = tested on: breast (MCF-7) cancer cell line; test: In vitro growth inhibition MTT assay, MCF-7, serum-free; assay type: cell-based, human; conditions: 72 hours
Description: as §4, §5, §1

[7] = tested on: ovarian (A2780) cancer cell line; test: In vitro growth inhibition MTT assay, A2780, serum-free; assay type: cell-based, human; conditions: 72 hours
Description: as §4, §5, §1

FITC-KRAKAKAAAAR ({FITC}-KRAKAKAAAAR) [FITC-K10(4)Ala]
Internalization / localization of FITC-labelled peptide in cells (HT29 cells): cytoplasmic localization of peptide

RSRARNPLYR (10 mer peptide from B5 integrin cytoplasmic domain) [10 mer peptide derived from the β5 integrin cytoplasmic domain]
Inhibition of proliferation of colon cancer cells in vitro (previously reported) (colon cancer cells): effective at inhibiting proliferation

RVKVKVVVVRRRRRRRR (10RVK peptide with a 7 mer polyarginine sequence coupled to its C-terminal end) [10 RVK 7 Arg]
Growth inhibition of MDA468 breast cancer cells ([1]; 5% serum, 48 hours): markedly inhibited growth
Growth inhibition of DU145 prostate cancer cells [2]: markedly inhibited growth

RSKAKNALYR (short variant of sequence 2, scrambled)
Inhibition of HT29 cell growth/proliferation (MTT), in words (HT29 colon cancer cells [3]): not seen

RSKAKNPLYR (Non naturally occurring peptide derived from the B6 binding sequence)
Growth inhibitory effect in the presence of serum (previously shown) (HT29 colon cancer cells [4]): adversely affected

KEKLKNPLFK (10-mer peptide from B2 integrin cytoplasmic domains) [10 mer peptide derived from the β2 integrin cytoplasmic domain]
Inhibition of proliferation of colon cancer cells in vitro (previously reported) (colon cancer cells): effective at inhibiting proliferation

RKKR (Charged residues for growth inhibitory effect)
Inhibition of HT29 cell growth/proliferation (MTT), in words (HT29 colon cancer cells [3]): not sufficient to inhibit cancer cell proliferation in vitro to the same degree

RKRK (A scrambled version of the charged residues RKKR)
Inhibition of HT29 cell growth/proliferation (MTT), in words (HT29 colon cancer cells [3]): significantly less effective at inhibiting growth of the cells

RAKARAAAAK (10Ala peptide wherein the position of one or both arginine and lysine residues have been inverted)
Inhibition of HT29 cell growth/proliferation (MTT), in words (HT29 colon cancer cells [3]): significantly reduced the ability of the peptides to inhibit cell growth

RAAKAARAAK (Scrambled peptide with Alanine in the place of all non-charged residues in peptide of sequence 2.) [scrambled alanine-substituted peptide]
Inhibition of HT29 cell growth/proliferation (MTT), in words (HT29 colon cancer cells [3]): ineffective

RSKAKNPLAR (A short variant peptide of sequence 2)
Inhibition of HT29 cell growth/proliferation (MTT), in words (HT29 colon cancer cells [3]): not seen

RAKAKAAAR (short variant of 10Ala)
Inhibition of HT29 cell growth/proliferation (MTT), in words (HT29 colon cancer cells [3]): minimal effect; also recorded: significantly less effective at inhibiting growth

RSKAKR (SHORT VARIANT OF THE PEPTIDE FROM SEQUENCE 2)
Inhibition of HT29 cell growth/proliferation (MTT), in words (HT29 colon cancer cells [3]): failed to inhibit proliferation

RAKAKAAAAAR (variant peptide of 10Ala having 5 alanine residues between the lysine and the C-terminal arginine)
Inhibition of HT29 cell growth/proliferation (MTT), in words (HT29 colon cancer cells [3]): significantly less effective at inhibiting growth

RVKVKVVVVRRRRRRRRR (8 mer polyarginine sequence couple to the C-terminal end of 10 RVK peptide) [10 RVK Arg]
Growth inhibitory activity on MDA468 compared to 10 RVK with penetratin coupled to its N-terminal ([1]; 5 μM to 10 μM, results not shown): enhanced cell growth inhibitory activity
Growth inhibition of MDA468 cells ([1]; 5% serum, 48 hours, concentration 5 μM to 50 μM): totally inhibited growth
Growth inhibition of MDA468 breast cancer cells ([1]; 5% serum, 48 hours): markedly inhibited growth
Growth inhibitory activity on DU145 compared to 10 RVK with penetratin coupled to its N-terminal ([2]; 10 μM to 50 μM, results not shown): enhanced cell growth inhibitory activity
Growth inhibition of DU145 prostate cancer cells [2]: markedly inhibited growth

RARAKNPLYK (10 mer peptide from B3 integrin cytoplasmic domain) [10 mer peptide derived from the β3 integrin cytoplasmic domain]
Inhibition of proliferation of colon cancer cells in vitro (previously reported) (colon cancer cells): effective at inhibiting proliferation

RAKAKAAAAR (B6 derived peptide)
Growth inhibitory effect in serum-containing medium (HT29 colon cancer cells [3]; serum-containing medium, data not shown): adversely affected
Inhibition of HT29 cell growth/proliferation (MTT), in words (HT29 colon cancer cells [3]): ability of both peptides to inhibit cell growth was similar
Inhibition of HT29 cell growth/proliferation (MTT), in words (HT29 colon cancer cells [3]; listed as 10Ala): significantly more effective at inhibiting cell proliferation
Inhibition of DU145 cell growth [5]: equally effective
Inhibition of MCF-7 cell growth [6]: equally effective
Inhibition of A2780 cell growth [7]: equally effective

KARARAAAAK (10Ala peptide in which the positions of one or both arginine and lysine residues have been inverted)
Inhibition of HT29 cell growth/proliferation (MTT), in words (HT29 colon cancer cells [3]): significantly reduced the ability of the peptides to inhibit cell growth

RAKAK (shorter variant of 10Ala)
Inhibition of HT29 cell growth/proliferation (MTT), in words (HT29 colon cancer cells [3]): minimal effect

RRRRRRRRRVKVKVVVVR (10 RVK peptide with an 8 mer polyargine sequence coupled ot its N-terminal end) [Arg 10 RVK]
Growth inhibition of MDA468 breast cancer cells ([1]; 5% serum, 48 hours): markedly inhibited growth
Growth inhibition of DU145 prostate cancer cells [2]: markedly inhibited growth

Reference: US9403877B2, “Peptide agents for cancer therapy” (INTER-K PTY LIMITED, priority 2012, dated 2016)
